Data set [1] has as its system HBV. Kind of data set: anti HBV activity, HepG2.117 cell line, intracellular HBV DNA by realtime PCR. The format is cell-based. The note with it: HepG2.117 cell line (Tet-off), 3 days of treatment, intracellular HBV DNA quantified by realtime PCR, read-out: HBV-AVE-HepG2.117 EC50. A digest of the protocol: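 HepG2.117 cells, a Tet-off line that replicates HBV without doxycycline, were induced and then treated in duplicate with serially diluted compound. After 3 days, intracellular HBV DNA was quantified by real-time PCR with an HBV-specific primer set and probe.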

A short description of data set [2]: Cytotoxicity in HepG2 cells, Resazurin assay. The note with it: human, HepG2 cells, TOX-HepG2-4 d CC50 (μM), HepG2 cells incubated for 4 days, viability by Resazurin assay. In general terms: Alamar Blue is a resazurin reagent that responds to reducing activity.
Where [3] appears, read: Hepatitis B virus, HepG2.117, 72 h.

Read-outs that look alike come from different tables or passages of the source. Bounds are passed on as bounds.

What is called EC50 is the concentration that produces a half-maximal response. The term CC50 denotes the concentration that lowers cell viability or growth by half.

As to `CCC(O)[C@H]1COc2c(cn(C)c2C(=O)Nc2ccc(F)c(C#N)c2)S(=O)(=O)N1` (stereo partly drawn) [Compound 122a, (3R)—N-(3-cyano-4-fluoro-phenyl)-3-(1-hydroxypropyl)-7-methyl-1,1-dioxo-3,4-dihydro-2H-pyrrolo[3,4-b][1,4,5]oxathiazepine-6-carboxamide], the EC50 in data set [1] (setting [3]) amounted to 12 nM. In data set [2], the 50% cytotoxic concentration (CC50) at 4 days was above 25 µM.

Consider `Cc1cc(NC(=O)c2c3c(cn2C)S(=O)(=O)N[C@@H]([C@H](C)O)CO3)ccc1F` [Compound 200, (3R)—N-(4-fluoro-3-methyl-phenyl)-3-[(1S)-1-hydroxyethyl]-7-methyl-1,1-dioxo-3,4-dihydro-2H-pyrrolo[3,4-b][1,4,5]oxathiazepine-6-carboxamide], for which, in data set [1] (setting [3]), the EC50 was 84 nM. This compound also returned a CC50 at 4 days in data set [2] above 25 µM.

Regarding `Cc1cc(NC(=O)c2c3c(cn2C)S(=O)(=O)N[C@@H](C)CC3)ccc1F` (single isomer, unassigned) [Compound 41, (3*S)—N-(4-fluoro-3-methyl-phenyl)-3,7-dimethyl-1,1-dioxo-2,3,4,5-tetrahydropyrrolo[3,4-f]thiazepine-6-carboxamide], the EC50 in data set [1] (setting [3]) was found to be 8 nM. Further, the CC50 at 4 days in data set [2] was above 25 µM.

Turning to `CC1CNc2c(cn(C)c2C(=O)Nc2ccc(F)c(F)c2)S(=O)(=O)N1` (centres unmarked) [Compound 67, N-(3,4-difluorophenyl)-3,7-dimethyl-1,1-dioxo-2,3,4,5-tetrahydropyrrolo[3,4-f][1,2,5]thiadiazepine-6-carboxamide], the EC50 in data set [1] (setting [3]) amounted to 69 nM. The CC50 at 4 days in data set [2] was above 25 µM.

Regarding `C[C@H](O)[C@H]1C=Cc2c(cn(C)c2C(=O)Nc2ccc(F)c(C#N)c2F)S(=O)(=O)N1` [Compound 178, (3R)—N-(3-cyano-2,4-difluoro-phenyl)-3-[(1S)-1-hydroxyethyl]-7-methyl-1,1-dioxo-2,3-dihydropyrrolo[3,4-f]thiazepine-6-carboxamide], the EC50 in data set [1] (setting [3]) was determined as 16 nM. For the same compound, the CC50 at 4 days in data set [2] was above 25 µM.

Regarding `CC1C=Cc2c(cn(C)c2C(=O)Nc2cc(F)c(F)c(F)c2)S(=O)(=O)N1` (single isomer, unassigned) [Compound 29, (*S)-3,7-dimethyl-1,1-dioxo-N-(3,4,5-trifluorophenyl)-2,3-dihydropyrrolo[3,4-f]thiazepine-6-carboxamide], the 50% effective concentration (EC50) in data set [1] (setting [3]) turned out to be 5 nM. Besides, the CC50 at 4 days in data set [2] is above 25 µM.

In the case of `Cn1cc2c(c1C(=O)Nc1ccc(F)c(F)c1)OC[C@H](Cc1cccnc1)NS2(=O)=O` [Compound 38, (3S)—N-(3,4-difluorophenyl)-7-methyl-1,1-dioxo-3-(3-pyridylmethyl)-3,4-dihydro-2H-pyrrolo[3,4-b][1,4,5]oxathiazepine-6-carboxamide], the EC50 in data set [1] (setting [3]) was determined as 5 nM. The cytotoxic concentration (CC50) at 4 days in data set [2] is above 25 µM.

For the compound `Cc1ccc(NC(=O)c2c(F)ccc3c2OC[C@@H](C(C)C)NS3(=O)=O)cc1F` [Compound 46, (3R)-7-fluoro-N-(3-fluoro-4-methyl-phenyl)-3-isopropyl-1,1-dioxo-3,4-dihydro-2H-5,1λ^6,2-benzoxathiazepine-6-carboxamide], the 50% effective concentration (EC50) in data set [1] (setting [3]) came out at 330 nM. This compound also gave a CC50 at 4 days in data set [2] above 25 µM.

For `CC(C)C(O)C1COc2c(cn(C)c2C(=O)Nc2ccc(F)c(C#N)c2)S(=O)(=O)N1` (centres unmarked) [Compound 119a, N-(3-cyano-4-fluoro-phenyl)-3-(1-hydroxy-2-methyl-propyl)-7-methyl-1,1-dioxo-3,4-dihydro-2H-pyrrolo[3,4-b][1,4,5]oxathiazepine-6-carboxamide], the EC50 in data set [1] (setting [3]) is 11 nM. In addition, the CC50 at 4 days in data set [2] is above 25 µM.

For the compound `Cn1cc2c(c1C(=O)Nc1ccc(F)c(C#N)c1)C=CC1(COC1)NS2(=O)=O` [Compound 140, N-(3-cyano-4-fluoro-phenyl)-7-methyl-1,1-dioxo-spiro[2H-pyrrolo-[3,4-f]thiazepine-3,3′-oxetane]-6-carboxamide], in data set [1] (setting [3]), the EC50 is 62 nM. In addition, in data set [2], the CC50 at 4 days was above 25 µM.

Consider `C[C@@H]1NS(=O)(=O)c2cn(C)c(C(=O)Nc3ccc(F)c(F)c3)c2O[C@H]1C` [compound 229], for which the EC50 in data set [1] (setting [3]) was above 500 nM. The compound also yielded a cytotoxic concentration (CC50) at 4 days in data set [2] above 25 µM.

Take `C[C@@H](O)[C@@H]1COc2c(cn(C)c2C(=O)Nc2ccc(F)c(F)c2)S(=O)(=O)N1` [Compound 34, (3S)—N-(3,4-difluorophenyl)-3-[(1R)-1-hydroxyethyl]-7-methyl-1,1-dioxo-3,4-dihydro-2H-pyrrolo[3,4-b][1,4,5]oxathiazepine-6-carboxamide]: the concentration for a half-maximal effect (EC50) in data set [1] (setting [3]) was 56 nM. This compound came in with a CC50 at 4 days in data set [2] above 25 µM.

Turning to `Cn1cc2c(c1C(=O)Nc1ccc(F)c(F)c1)OCC(C)(c1ncco1)NS2(=O)=O` (racemic) [Compound 160, N-(3,4-difluorophenyl)-3,7-dimethyl-3-oxazol-2-yl-1,1-dioxo-2,4-dihydropyrrolo[3,4-b][1,4,5]oxathiazepine-6-carboxamide], the EC50 in data set [1] (setting [3]) is 14.5 nM. For the same compound, the CC50 at 4 days in data set [2] is above 25 µM.

For `CCC(O)[C@@H]1COc2c(cn(C)c2C(=O)Nc2ccc(F)c(C(F)F)c2)S(=O)(=O)N1` (single isomer, unassigned) [Compound 144a, N-[3-(difluoromethyl)-4-fluoro-phenyl]-3-(1-hydroxypropyl)-7-methyl-1,1-dioxo-3,4-dihydro-2H-pyrrolo[3,4-b][1,4,5]oxathiazepine-6-carboxamide], the EC50 in data set [1] amounted to 19 nM. Besides, the 50% cytotoxic concentration (CC50) at 4 days in data set [2] was above 25 µM.

As to `C[C@H](O)[C@H]1COc2c(cn(C)c2C(=O)Nc2ccnc(Br)c2)S(=O)(=O)N1` [Compound 66, (3R)—N-(2-bromo-4-pyridyl)-3-[(1S)-1-hydroxyethyl]-7-methyl-1,1-dioxo-3,4-dihydro-2H-pyrrolo[3,4-b][1,4,5]oxathiazepine-6-carboxamide], the EC50 in data set [1] (setting [3]) was determined as 47 nM. The CC50 at 4 days in data set [2] was above 25 µM.

With `C[C@@H](O)[C@H]1C=Cc2c(cn(C)c2C(=O)Nc2ccc(F)c(F)c2)S(=O)(=O)N1` [Compound 69, (3R)—N-(3,4-difluorophenyl)-3-[(1R)-1-hydroxyethyl]-7-methyl-1,1-dioxo-2,3-dihydropyrrolo[3,4-f]thiazepine-6-carboxamide], in data set [1] (setting [3]), the EC50 was 33 nM. Besides, the CC50 at 4 days in data set [2] is above 25 µM.

As to `Cn1cc2c(c1C(=O)Nc1ccnc(C(F)F)c1)OCC(C)(CO)NS2(=O)=O` (single isomer, unassigned) [Compound 215a, N-[2-(difluoromethyl)-4-pyridyl]-3-(hydroxymethyl)-3,7-dimethyl-1,1-dioxo-2,4-dihydropyrrolo[3,4-b][1,4,5]oxathiazepine-6-carboxamide], the concentration giving a half-maximal response (EC50) in data set [1] is 62 nM. In addition, the CC50 at 4 days in data set [2] was above 25 µM.

For the compound `Cn1cc2c(c1C(=O)Nc1ccc(F)c(C#N)c1)OCC(C)(C)NS2(=O)=O` [Compound 135, N-(3-cyano-4-fluoro-phenyl)-3,3,7-trimethyl-1,1-dioxo-2,4-dihydropyrrolo[3,4-b][1,4,5]oxathiazepine-6-carboxamide], the EC50 in data set [1] (setting [3]) was determined as 5 nM. The same compound gave a half-maximal cytotoxic concentration (CC50) at 4 days in data set [2] above 25 µM.

Turning to `Cn1cc2c(c1C(=O)Nc1ccc(F)c(F)c1)OC[C@@H](C1(O)CC1)NS2(=O)=O` [Compound 196, (3S)—N-(3,4-difluorophenyl)-3-(1-hydroxycyclopropyl)-7-methyl-1,1-dioxo-3,4-dihydro-2H-pyrrolo[3,4-b][1,4,5]oxathiazepine-6-carboxamide], in data set [1] (setting [3]), the EC50 was 65 nM. Also, the half-maximal cytotoxic concentration (CC50) at 4 days in data set [2] was above 25 µM.
